In EP0983256B1, “TRIPTOLIDE DERIVATIVES USEFUL IN THE TREATMENT OF AUTOIMMUNE DISEASES” (priority 1997, dated 1998) one finds IC50/IL-2 and IC50/MTT data, which are given here for three compounds.

Values after ≈ are worked out from the molar mass of the structure shown.

Assay [1] has as its system IL-2 production. The assay can be described thus: Interleukin-2 assay (IL-2 production, ELISA). The class given is cell-based, human. The note with it: cells stimulated with PHA 10 µg/mL and 10^-8 M TPA; incubation 16-24 hours. The method, then:
(§1) Jurkat E6-1 cell line (ATCC), a human leukemic T cell line or lymphocytes prepared from fresh human blood, are grown in compiete culture medium consisting of RPMI-1640 (Mediatech) supplemented with 10% v/v fetal bovine serum (HyClone, Logen, Vermont), penicillin (100 units/mL), streptomycin (200 µg/mL), and 2mM L-glutamine (GIBCO, Grand Island, New York). The cells are grown to a concentration of between 1.2 to 1.8 X 10^6 cells/mL before use. The cells are then centrifuged at low speed and resuspended to a concentration of 1.25 X 10^6 cells/mL in fresh medium.
(§2) The compounds to be tested are dissolved in DMSO, and water is added to make a 50% DMSO/water solution. The compounds are then diluted in sterile water such that the DMSO concentrations are less then 0.05%. The cells at a concentration of 1.25 X 10^6 cells/mL are stimulated with phytohemagglutinin 10 µg/mL (PHA) and 10^-8 M phorbol ester (12-O-tetradecanoylphorbol 13-acetate: TPA), (Sigma, St. Louis, Missouri). The compounds are then added and the cells are plated in flat-bottom tissue culture plates (Falcon, Lincoln Park, New Jersey), with 250,000 cells/well. Plates are then incubated at 37°C under an atmosphere of 5% CO2.
(§3) After incubation (16-24 hours), the cells are assayed for IL-2 production and cell viability (MTT). IL-2 production is assayed utilizing a solid phase ELISA immunoassay, sold in kit form by R&D Systems, Inc., Minneapolis, Minnesota.
On the technique in general: ELISA stands for enzyme-linked immunosorbent assay.

Assay [2] has as its system Jurkat E6-1 cell line. The assay can be described thus: Cell viability (MTT mitochondrial enzyme assay). The class given is cell-based, human. The conditions noted are these: same cells after removal of supernatant for the IL-2 assay; MTT 4 hours, read at 570 nm. As to the method: as §1, §2, §3
Cell viability is measured by the use of a mitochondrial enzyme assay. After removal of the supernatant for the IL-2 assay, Cell Titer 96 (a commercial solution of MTT available from Promega, Madison, Wisconsin) is added to the plates and incubated for 4 hours at 37°C. A solubilization solution is then added and incubated overnight. The plates are then read on an ELISA plate reader at a wavelength of 570 nm. Table II presents the results for the Interleukin-2 assay, the cell viability assay and the ratio of cell viability/IL-2 inhibition.
For orientation: Tetrazolium assays rely on reduction of a dye to a coloured formazan, in cell work by metabolically active cells.

Turning to “[5aS-(5aα,5bα,8β,9α,9aR*,10aβ)]-4,5a,5b,8,9,10a,11,11a-octahydro-5b,8,9-trihydroxy-5a-methyl-8-(1-methylethyl)-1H-oxireno[8a,9]phenanthro[1,2-c]furan-3(5H)-one [Example 1]”, the IC50/IL-2 in assay [1] was 1,000 ng/mL. For the same compound, the IC50/MTT in assay [2] is >>1,000 ng/mL.
In the case of `CC(C)[C@]1(O)C=C[C@@]2(O)[C@@]3(C)CCC4=C(COC4=O)C3CC[C@@]2(O)[C@@H]1O` (stereo partly drawn) [Example 2, [5aR-(5aα,6α,7β,9aα,9bα)]-3b,4,5,5a,6,7,9a,9b,10,11-decahydro-5a,6,7,9a-tetrahydroxy-9b-methyl-7-(1-methylethyl)-phenanthro[1,2-c]furan-1(3H)-one], the IC50/IL-2 in assay [1] was 14 ng/mL (≈ 0.0384 µM). The IC50/MTT in assay [2] is on record as 90 ng/mL (≈ 0.247 µM).
For “[5R-(5α,5aβ,6β,7α,9aβ,9bβ)]-3b,4,5,5a,6,7,9a,10,11-decahydro-5a,6,9a-trihydroxy-9b-methyl-7-(1-methylethyl)-5,7-epoxyphenanthro[1,2-c]furan-1(3H)-one [Example 3]”, the IC50/IL-2 in assay [1] is 500 ng/mL. In assay [2], the IC50/MTT was >>1,000 ng/mL.
